# Results reported in ChEMBL document CHEMBL2158001, “Lead optimization studies towards the discovery of novel carbamates as potent AChE inhibitors for the potential treatment of Alzheimer's disease” (Bioorg Med Chem, 2012).
# Target: T1, Acetylcholinesterase (Mus musculus, UniProt P21836)
# T1 sequence (P21836 whole entry): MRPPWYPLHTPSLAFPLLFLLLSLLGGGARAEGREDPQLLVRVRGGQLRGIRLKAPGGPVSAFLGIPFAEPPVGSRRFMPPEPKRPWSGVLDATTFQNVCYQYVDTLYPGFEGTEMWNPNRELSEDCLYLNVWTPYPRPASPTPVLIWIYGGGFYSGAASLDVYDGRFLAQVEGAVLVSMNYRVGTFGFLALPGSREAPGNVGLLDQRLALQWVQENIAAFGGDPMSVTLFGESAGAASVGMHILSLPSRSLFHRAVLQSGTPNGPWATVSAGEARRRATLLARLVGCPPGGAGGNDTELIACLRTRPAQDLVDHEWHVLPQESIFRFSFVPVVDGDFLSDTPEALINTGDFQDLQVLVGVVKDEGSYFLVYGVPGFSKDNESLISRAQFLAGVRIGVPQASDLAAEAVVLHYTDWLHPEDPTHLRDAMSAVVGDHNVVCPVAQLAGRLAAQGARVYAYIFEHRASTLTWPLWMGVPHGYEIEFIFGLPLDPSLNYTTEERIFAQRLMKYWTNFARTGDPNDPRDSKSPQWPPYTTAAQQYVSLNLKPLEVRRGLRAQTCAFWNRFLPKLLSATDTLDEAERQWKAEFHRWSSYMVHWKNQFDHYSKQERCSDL
# Description: Inhibition of Swiss albino mouse RBC AChE after 30 mins by Ellman method
row,SMILES,IC50 [µM]
1,CCCCCCCCNC(=O)Oc1ccc2c(c1)CCCN2Cc1ccc(Cl)cc1Cl,> 10000
2,Cc1ccccc1NC(=O)Oc1ccc2c(c1)CCCN2Cc1ccccc1,14.3
3,Cc1cccc(NC(=O)Oc2ccc3c(c2)CCCN3Cc2ccccc2)c1,60.2
4,O=C(Nc1cccc(Cl)c1)Oc1ccc2c(c1)CCCN2Cc1ccc(Cl)cc1Cl,211
5,O=C(Nc1ccc(Cl)cc1)Oc1ccc2c(c1)CCCN2Cc1ccc(Cl)cc1Cl,3480
6,O=C(Nc1cccc(Br)c1)Oc1ccc2c(c1)CCCN2Cc1ccc(Cl)cc1Cl,140
7,COc1ccccc1NC(=O)Oc1ccc2c(c1)CCCN2Cc1ccc(Cl)cc1Cl,13.8
8,O=C(Nc1ccccc1F)Oc1ccc2c(c1)CCCN2Cc1ccc(Cl)cc1Cl,2.56
9,O=C(Nc1ccc(F)cc1)Oc1ccc2c(c1)CCCN2Cc1ccc(Cl)cc1Cl,89.4
10,CCCCCCNC(=O)Oc1ccc2c(c1)CCCN2Cc1ccc(Cl)cc1Cl,14.1
11,CCCCCCCNC(=O)Oc1ccc2c(c1)CCCN2Cc1ccc(Cl)cc1Cl,105
12,Cc1ccccc1NC(=O)Oc1ccc2c(c1)CCCN2Cc1ccc(Cl)cc1Cl,2.57
13,Cc1cccc(NC(=O)Oc2ccc3c(c2)CCCN3Cc2ccc(Cl)cc2Cl)c1,0.7
14,Cc1ccc(NC(=O)Oc2ccc3c(c2)CCCN3Cc2ccc(Cl)cc2Cl)cc1,851
15,O=C(Nc1ccccc1Cl)Oc1ccc2c(c1)CCCN2Cc1ccc(Cl)cc1Cl,11.9
